According to US11292760B2, “Therapeutic acrylates as enhanced medical adhesives” (Carnegie Mellon University, priority 2016, dated 2022):

What was measured:
[1] = Solubility of TMA monomer in adhesive monomers; assay type: physicochemical
[2] = Time-lapse 1H NMR of hydrolysis after exposure to D2O; assay type: physicochemical; conditions: monomer dissolved in CDCl3, 1H NMR
Procedure: […] One drop of deuterium oxide (D2O, EMD Millipore) was then added and the sample inverted gently once to mix. Spectra were recorded immediately, then periodically for the next two hours.

C=C(C)C(=O)OC(=O)C(C)c1ccc(CC(C)C)cc1 (stereo not shown) [IbuMA, Ibuprofen Methacrylic Anhydride]
solubility in methyl methacrylate monomer ([1]; commercial formulation): soluble
solubility in n-butyl cyanoacrylate ([1]; commercial formulation): soluble
time course of anhydride bond hydrolysis after exposure to D2O [2]: 90 min

C=C(C)C(=O)Nc1ccc(C(=O)OCC)cc1 [BenzMA, Benzocaine Methacrylamide]
solubility in BCA monomer ([1]; 25% TMA by weight in the adhesive, preliminary formulation tests): excellent solubility
